The source of these data is publication PMC3747596 (PLoS ONE, 2013).

pKi: −log10 of the molar value. Read-outs that look alike come from different tables or passages of the source. A value given as a limit tells only on which side of the number the result lay.

In one data set the target is H1 (Homo sapiens, UniProt P35367). The data set can be described thus: Radioligand displacement, H1. Format: binding. (In a radioligand displacement assay an active substance lowers the binding of a labelled ligand.)
For data set [1] the following is noted: cited from earlier work.
Another data set addresses T1, D4 (Homo sapiens, UniProt P21917).
T1 sequence (P21917 1-419): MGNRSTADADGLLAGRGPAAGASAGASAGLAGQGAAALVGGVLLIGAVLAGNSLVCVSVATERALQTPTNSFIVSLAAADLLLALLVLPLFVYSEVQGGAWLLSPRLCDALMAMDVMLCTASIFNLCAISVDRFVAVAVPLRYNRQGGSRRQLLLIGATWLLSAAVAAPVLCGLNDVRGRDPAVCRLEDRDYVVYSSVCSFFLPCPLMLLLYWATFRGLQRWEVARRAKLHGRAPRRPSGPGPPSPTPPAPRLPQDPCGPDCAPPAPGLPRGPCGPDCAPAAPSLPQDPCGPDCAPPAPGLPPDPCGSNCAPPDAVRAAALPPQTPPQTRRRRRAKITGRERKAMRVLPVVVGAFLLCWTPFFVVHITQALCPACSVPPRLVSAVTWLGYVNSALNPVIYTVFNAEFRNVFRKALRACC
Briefly: Radioligand displacement, D4. Type of data set: binding.

Data set [2] concerns the target noradrenaline (norepinephrine) transporter (NET) (Homo sapiens, UniProt P23975). Briefly: Radioligand displacement, NET. Type of data set: binding.
The target of another data set is M5 (Homo sapiens, UniProt P08912). Briefly: Radioligand displacement, M5. Type of data set: binding.
The next data set has as its target T2, α1D (Homo sapiens, UniProt P25100).
T2 sequence (P25100 1-572): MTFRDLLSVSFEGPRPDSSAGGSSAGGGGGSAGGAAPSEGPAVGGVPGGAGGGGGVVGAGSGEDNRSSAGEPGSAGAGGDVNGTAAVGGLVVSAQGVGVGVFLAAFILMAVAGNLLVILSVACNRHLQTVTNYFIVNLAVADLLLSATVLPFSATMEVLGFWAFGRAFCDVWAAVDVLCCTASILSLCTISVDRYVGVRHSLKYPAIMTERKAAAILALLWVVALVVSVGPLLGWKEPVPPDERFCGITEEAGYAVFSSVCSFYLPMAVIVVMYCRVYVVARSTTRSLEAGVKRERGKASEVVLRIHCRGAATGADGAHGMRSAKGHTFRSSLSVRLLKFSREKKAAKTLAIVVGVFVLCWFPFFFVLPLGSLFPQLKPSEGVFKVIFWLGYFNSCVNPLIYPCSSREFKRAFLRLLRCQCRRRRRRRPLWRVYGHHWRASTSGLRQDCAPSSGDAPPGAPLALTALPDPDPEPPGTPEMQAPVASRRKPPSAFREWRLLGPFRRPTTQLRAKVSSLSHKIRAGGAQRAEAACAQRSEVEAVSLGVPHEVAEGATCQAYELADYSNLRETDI
The data set can be described thus: Radioligand displacement, α1D. Type of data set: binding.

For data set [3], the target named is T3, α2C-adrenoceptor (α2C-AR) (Homo sapiens, UniProt P18825).
T3 sequence (P18825 1-462): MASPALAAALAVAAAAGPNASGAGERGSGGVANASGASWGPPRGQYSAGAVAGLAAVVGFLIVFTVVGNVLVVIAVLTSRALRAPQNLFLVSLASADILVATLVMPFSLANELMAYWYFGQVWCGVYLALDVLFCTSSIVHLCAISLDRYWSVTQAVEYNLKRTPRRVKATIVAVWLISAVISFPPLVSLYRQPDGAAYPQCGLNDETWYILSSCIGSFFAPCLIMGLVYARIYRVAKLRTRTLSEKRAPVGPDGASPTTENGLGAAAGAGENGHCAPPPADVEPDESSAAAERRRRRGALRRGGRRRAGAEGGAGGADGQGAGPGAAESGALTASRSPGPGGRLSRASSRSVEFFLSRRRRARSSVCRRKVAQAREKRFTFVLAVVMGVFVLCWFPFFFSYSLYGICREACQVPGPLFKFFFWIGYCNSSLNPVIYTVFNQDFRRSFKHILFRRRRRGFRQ
Briefly: Radioligand displacement, α2C.

A further data set deals with D5 (Homo sapiens, UniProt P21918). Briefly: Radioligand displacement, D5. Type of data set: binding.
For a further data set, the target named is GABAA (BZP). The data set can be described thus: Radioligand displacement, GABAA (BZP). Format: binding. Particulars: [3H] radioligand Flunitrazepam; Rat, Brain.
The target in a further data set is M3 (Homo sapiens, UniProt P20309). The data set can be described thus: Radioligand displacement, M3. Format: binding.
The target of the next data set is H4 (Homo sapiens, UniProt Q9H3N8). Briefly: Radioligand displacement, H4. Type of data set: binding.
The target in a further data set is T4, α2B (Homo sapiens, UniProt P18089).
T4 sequence (P18089 1-450): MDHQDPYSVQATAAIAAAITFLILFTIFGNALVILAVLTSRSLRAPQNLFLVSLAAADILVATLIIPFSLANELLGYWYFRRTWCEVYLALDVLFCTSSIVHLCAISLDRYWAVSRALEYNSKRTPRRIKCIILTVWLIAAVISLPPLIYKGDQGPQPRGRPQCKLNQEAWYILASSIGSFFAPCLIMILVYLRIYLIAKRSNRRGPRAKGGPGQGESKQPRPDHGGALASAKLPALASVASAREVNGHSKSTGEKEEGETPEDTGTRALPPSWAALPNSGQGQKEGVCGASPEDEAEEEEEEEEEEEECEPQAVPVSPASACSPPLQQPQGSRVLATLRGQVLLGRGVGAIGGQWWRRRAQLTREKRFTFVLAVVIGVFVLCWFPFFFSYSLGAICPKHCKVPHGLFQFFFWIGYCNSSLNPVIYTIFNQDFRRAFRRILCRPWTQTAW
The data set can be described thus: Radioligand displacement, α2B. Type of data set: binding.

Where [4] appears, read: K i, α2C, radioligand displacement (Table 1).
[5] abbreviates: Ki, [3H] radioligand Rauwolscine, Human, Cloned.
[6] abbreviates: K i, D5, radioligand displacement (Table 1).
The mark [7] stands for this setting: Ki, [3H] radioligand SCH23390, Human, Cloned.
The mark [8] stands for this setting: [3H] radioligand Rauwolscine, Human, Cloned.
The mark [9] stands for this setting: [3H] radioligand QNB, Human, Cloned, read-out: Ki.

Sequence of noradrenaline (norepinephrine) transporter (NET) (P23975 whole entry): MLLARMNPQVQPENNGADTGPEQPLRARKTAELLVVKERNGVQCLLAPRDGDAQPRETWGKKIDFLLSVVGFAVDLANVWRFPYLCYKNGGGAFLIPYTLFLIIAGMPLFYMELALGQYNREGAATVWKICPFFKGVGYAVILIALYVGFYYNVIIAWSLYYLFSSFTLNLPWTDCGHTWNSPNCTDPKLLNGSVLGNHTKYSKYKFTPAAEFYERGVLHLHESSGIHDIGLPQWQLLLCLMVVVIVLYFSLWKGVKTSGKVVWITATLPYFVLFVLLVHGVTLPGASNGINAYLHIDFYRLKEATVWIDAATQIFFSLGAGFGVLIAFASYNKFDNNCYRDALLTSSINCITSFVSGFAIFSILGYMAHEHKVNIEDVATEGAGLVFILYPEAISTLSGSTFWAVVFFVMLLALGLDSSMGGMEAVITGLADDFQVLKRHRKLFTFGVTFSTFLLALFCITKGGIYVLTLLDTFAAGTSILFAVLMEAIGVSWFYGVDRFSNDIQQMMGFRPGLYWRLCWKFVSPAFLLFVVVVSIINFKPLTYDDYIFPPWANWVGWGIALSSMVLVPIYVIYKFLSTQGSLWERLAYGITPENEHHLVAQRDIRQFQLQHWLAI
Sequence of M3 (P20309 whole entry): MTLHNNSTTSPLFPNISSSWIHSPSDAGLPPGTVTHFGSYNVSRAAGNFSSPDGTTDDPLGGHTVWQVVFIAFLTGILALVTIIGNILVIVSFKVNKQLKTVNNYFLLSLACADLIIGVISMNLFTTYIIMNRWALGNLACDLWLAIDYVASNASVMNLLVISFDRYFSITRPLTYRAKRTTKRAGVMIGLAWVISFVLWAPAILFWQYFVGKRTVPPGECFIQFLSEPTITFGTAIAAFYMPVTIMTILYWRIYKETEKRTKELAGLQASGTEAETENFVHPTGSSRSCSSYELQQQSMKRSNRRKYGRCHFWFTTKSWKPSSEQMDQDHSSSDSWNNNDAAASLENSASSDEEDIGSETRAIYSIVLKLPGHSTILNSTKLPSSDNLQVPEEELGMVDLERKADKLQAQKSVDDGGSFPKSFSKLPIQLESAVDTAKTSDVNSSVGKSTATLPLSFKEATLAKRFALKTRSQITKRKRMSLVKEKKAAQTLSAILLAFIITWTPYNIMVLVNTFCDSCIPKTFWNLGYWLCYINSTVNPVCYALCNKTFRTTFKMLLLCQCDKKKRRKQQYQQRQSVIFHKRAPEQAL
Sequence of D5 (P21918 whole entry): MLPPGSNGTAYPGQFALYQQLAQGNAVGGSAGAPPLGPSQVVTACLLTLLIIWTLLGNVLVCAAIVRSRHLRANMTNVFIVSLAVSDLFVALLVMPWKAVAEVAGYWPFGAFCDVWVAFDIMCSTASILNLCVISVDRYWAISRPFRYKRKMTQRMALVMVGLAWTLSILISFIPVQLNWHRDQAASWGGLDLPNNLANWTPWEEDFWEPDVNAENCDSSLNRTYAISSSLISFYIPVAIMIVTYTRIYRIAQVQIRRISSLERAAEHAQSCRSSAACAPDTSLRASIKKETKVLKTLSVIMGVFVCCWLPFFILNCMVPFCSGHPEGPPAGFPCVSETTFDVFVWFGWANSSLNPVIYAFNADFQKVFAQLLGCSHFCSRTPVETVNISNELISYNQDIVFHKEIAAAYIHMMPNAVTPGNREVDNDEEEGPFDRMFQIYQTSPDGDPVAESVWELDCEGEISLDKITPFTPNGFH
Sequence of H1 (P35367 whole entry): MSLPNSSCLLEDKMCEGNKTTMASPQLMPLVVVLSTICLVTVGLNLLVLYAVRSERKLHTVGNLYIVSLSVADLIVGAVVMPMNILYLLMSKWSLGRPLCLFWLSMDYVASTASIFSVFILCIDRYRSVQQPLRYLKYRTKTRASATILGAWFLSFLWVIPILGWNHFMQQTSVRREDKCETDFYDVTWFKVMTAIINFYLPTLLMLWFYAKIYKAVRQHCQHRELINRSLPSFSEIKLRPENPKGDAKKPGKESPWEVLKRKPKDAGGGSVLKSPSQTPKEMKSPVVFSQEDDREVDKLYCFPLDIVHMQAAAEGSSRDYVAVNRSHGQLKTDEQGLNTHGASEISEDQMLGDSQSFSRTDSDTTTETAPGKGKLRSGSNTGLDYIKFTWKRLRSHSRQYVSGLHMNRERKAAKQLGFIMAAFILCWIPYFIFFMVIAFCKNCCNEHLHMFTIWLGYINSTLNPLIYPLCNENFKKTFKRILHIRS
Sequence of H4 (Q9H3N8 whole entry): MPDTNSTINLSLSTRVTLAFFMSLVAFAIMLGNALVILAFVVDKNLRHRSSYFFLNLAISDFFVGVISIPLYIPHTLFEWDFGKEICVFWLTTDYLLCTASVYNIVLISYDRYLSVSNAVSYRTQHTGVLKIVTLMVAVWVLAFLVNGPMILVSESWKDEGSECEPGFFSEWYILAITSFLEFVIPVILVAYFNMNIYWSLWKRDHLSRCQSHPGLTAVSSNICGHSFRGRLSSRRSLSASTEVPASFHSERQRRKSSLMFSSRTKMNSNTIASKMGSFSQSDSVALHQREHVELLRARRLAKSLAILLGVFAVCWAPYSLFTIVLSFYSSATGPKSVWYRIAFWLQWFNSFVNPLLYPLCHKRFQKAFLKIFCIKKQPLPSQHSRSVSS
Sequence of M5 (P08912 whole entry): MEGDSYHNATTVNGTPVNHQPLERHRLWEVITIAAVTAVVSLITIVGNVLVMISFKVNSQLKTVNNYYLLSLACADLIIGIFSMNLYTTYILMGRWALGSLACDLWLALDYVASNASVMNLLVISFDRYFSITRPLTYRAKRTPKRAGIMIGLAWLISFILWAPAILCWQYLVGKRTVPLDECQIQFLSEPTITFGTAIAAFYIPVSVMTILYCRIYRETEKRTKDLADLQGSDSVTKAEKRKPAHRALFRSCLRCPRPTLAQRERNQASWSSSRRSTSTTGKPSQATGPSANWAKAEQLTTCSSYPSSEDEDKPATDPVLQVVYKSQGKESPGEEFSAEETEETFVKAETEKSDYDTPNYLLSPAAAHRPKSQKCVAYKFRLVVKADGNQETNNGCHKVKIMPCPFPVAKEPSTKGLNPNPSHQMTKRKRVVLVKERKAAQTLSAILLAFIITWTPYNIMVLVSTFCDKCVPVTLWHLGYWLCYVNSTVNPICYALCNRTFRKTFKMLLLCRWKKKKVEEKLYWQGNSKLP

Consider `N=C(N)Nc1ccc2[nH]c3c(c2c1)C[C@@]1(O)[C@H]2Cc4ccc(O)c5c4[C@@]1(CCN2CC1CC1)[C@H]3O5` [GNTI, 5′-guanidinonaltrindole], for which the pKi at H1 was at most 5.00; on D4, at most 5.00; in [2] it was at most 5.00; at M5, at most 5.00; at α1D, at most 5.00; in [3] (setting [4]), 5.66. The pKi in data set [3] (setting [5]) is 5.65; in data set [3] (Ki, binding curve File S1, Alpha2C Receptor, [125I]Clonidine (0.12 nM), Alpha2 Binding Buffer), 5.65; at D5 (setting [6]) it was 5.09; at D5 (setting [7]), 5.09; on GABAA (BZP), at most 5.00; on M3, at most 5.00. For the same compound, the pKi on H4 and at α2B (setting [8]) was at most 5.00 throughout. In [1] (after 39 mg/kg), the “estimate of the unbound brain concentration” value is listed as 5 nM. The “peak unbound concentration in plasma” value in data set [1] (dose 10 mg/kg) is on record as 2 µM; in data set [1] (dose 39 mg/kg), 8 µM. Moreover, the “decline of plasma concentration” value was “over 80%” in data set [1] (within 4 hours) and “over 98%” in data set [1] (within 24 hours).
For `CC(C)[C@@H](CN1CC[C@@](C)(c2cccc(O)c2)[C@@H](C)C1)NC(=O)[C@H]1Cc2ccc(O)cc2CN1` [JDTic], the pKi at H1 ([3H] radioligand Pyrilamine, Human, Cloned, read-out: Ki) is at most 5.00; at D4 ([3H] radioligand N-Methylspiperone, Human, Cloned, read-out: Ki), at most 5.00; in data set [2] (NET, versus [3H]nisoxetine (Table 1), read-out: K i), 7.27; on M5 (setting [9]), at most 5.00; at α1D (read-out: Ki), at most 5.00; in [3], at most 5.00. Moreover, the pKi is at most 5.00 at D5 ([3H] radioligand SCH23390, Human, Cloned, read-out: Ki); at most 5.00 on GABAA (BZP); at most 5.00 on M3 (setting [9]); at most 5.00 at H4 ([3H] radioligand Histamine, Human, Cloned, read-out: Ki); at most 5.00 on α2B (setting [8]). Further, in [1] (dose 10 mg/kg), the “peak unbound concentration in plasma” value was 0.1 µM. The entries for the “decline of plasma concentration” value in data set [1] (within 4 hours) and in [1] (within 24 hours) were “over 80%” and “over 98%”, respectively.
Consider `Oc1ccc2c3c1O[C@H]1c4[nH]c5c(c4C[C@@]4(O)[C@@H](C2)N(CC2CC2)CC[C@]314)C[C@@]1(O)[C@H]2Cc3ccc(O)c4c3[C@@]1(CCN2CC1CC1)[C@H]5O4` [nor-BNI, Nor-binaltorphimine], for which the pKi is at most 5.00 at H1; at most 5.00 on D4; at most 5.00 in [2]; at most 5.00 on M5; at most 5.00 at α1D; 6.20 in [3] (setting [4]). Also, the pKi in data set [3] (setting [5]) was 6.20; on D5 (setting [6]), 5.41; at D5 (setting [7]) it was 5.41; at D5 (Ki, binding curve File S1, Dopamine5 Receptor, [3H]SCH23390 (1.2 nM), Dopamine Binding Buffer) it was 5.41; at GABAA (BZP), at most 5.00; at M3 it was at most 5.00. The pKi at H4 was at most 5.00; at α2B (setting [8]) it was 5.84; at α2B (binding curve File S1, Alpha2B Receptor, [125I]Clonidine (0.12 nM), Alpha2 Binding Buffer), 5.84; on α2B (α2B, radioligand displacement (Table 1)) it was 5.82. Also, the “peak unbound concentration in plasma” value in data set [1] (dose 10 mg/kg) is 3 µM. Also, the figures for the “decline of plasma concentration” value in data set [1] (within 4 hours) and in data set [1] (within 24 hours) were “over 80%” and “over 98%”, respectively.
